Experimental data from ChEMBL document CHEMBL1131643, “Synthesis and 5 alpha-reductase inhibitory activities of benzofuran derivatives with a carbamoyl group” (Bioorg Med Chem Lett, 1998).

Columns and labels:
[1] = biological target: T1, Steroid 5-alpha-reductase (Rattus norvegicus, UniProt P24008+P31214); assay: In vitro inhibitory activity against rat testosterone 5 alpha reductase was determined; assay type: protein assay
T1 sequence (P24008 whole entry): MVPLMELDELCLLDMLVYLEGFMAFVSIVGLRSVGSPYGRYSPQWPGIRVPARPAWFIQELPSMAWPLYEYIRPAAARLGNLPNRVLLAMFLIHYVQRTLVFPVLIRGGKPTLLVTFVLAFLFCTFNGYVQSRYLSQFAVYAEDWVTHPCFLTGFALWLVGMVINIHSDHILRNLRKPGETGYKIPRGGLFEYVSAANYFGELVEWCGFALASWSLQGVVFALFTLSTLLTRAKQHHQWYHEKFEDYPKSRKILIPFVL
T1 sequence (P31214 whole entry): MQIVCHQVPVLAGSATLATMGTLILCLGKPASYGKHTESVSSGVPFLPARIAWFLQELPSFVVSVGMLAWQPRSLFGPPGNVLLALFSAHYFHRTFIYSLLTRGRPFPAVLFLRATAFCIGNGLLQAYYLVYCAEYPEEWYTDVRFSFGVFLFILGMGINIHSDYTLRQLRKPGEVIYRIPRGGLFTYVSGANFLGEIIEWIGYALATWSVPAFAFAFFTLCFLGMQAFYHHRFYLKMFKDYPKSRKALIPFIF

[2] = biological target: T2, 3-oxo-5-alpha-steroid 4-dehydrogenase 2 (Homo sapiens, UniProt P31213); assay: In vitro inhibitory activity against human Steroid 5-alpha-reductase type 2 in COS-1 cells was determined; assay type: cell-based
T2 sequence (P31213 whole entry): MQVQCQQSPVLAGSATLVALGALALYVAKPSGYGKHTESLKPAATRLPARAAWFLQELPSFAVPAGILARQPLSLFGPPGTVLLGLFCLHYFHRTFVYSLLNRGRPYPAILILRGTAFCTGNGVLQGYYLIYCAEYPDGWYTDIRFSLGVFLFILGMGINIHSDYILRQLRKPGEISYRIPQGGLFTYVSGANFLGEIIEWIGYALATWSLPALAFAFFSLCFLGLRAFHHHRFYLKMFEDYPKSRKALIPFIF

[3] = biological target: T3, 3-oxo-5-alpha-steroid 4-dehydrogenase 1 (Homo sapiens, UniProt P18405); assay: In vitro inhibitory activity against human Steroid 5-alpha-reductase type 1 in COS-1 cells was determined; assay type: cell-based
T3 sequence (P18405 whole entry): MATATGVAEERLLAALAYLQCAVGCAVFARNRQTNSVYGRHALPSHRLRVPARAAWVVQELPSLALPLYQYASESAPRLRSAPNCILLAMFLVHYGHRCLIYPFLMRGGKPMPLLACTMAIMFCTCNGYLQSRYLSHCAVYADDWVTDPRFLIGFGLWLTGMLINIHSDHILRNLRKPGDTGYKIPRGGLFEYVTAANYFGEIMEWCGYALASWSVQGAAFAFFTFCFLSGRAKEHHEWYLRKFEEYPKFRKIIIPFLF

Row | Structure (SMILES) | IC50 [1] [nM] | IC50 [2] [nM] | IC50 [3] [nM]
1 | COc1ccc(C(NC(=O)c2ccc3oc(-c4ccccc4OCCCC(=O)O)cc3c2)c2ccc(OC)cc2)cc1 | 26.3 | – | –
2 | CC(C)Cc1ccc(C(Nc2cccc(C(=O)c3cn(CCCC(=O)O)c4ccccc34)c2)c2ccc(CC(C)C)cc2)cc1 | 118 | 11 | 3
3 | O=C(O)CCCOc1ccccc1-c1cc2ccc(C(=O)NC(c3ccccc3)c3ccccc3)cc2o1 | 28.5 | 270 | 62
4 | COc1ccc(C(NC(=O)c2ccc3cc(-c4ccccc4OCCCC(=O)O)oc3c2)c2ccc(OC)cc2)cc1 | 35.5 | 930 | 130
5 | O=C(O)CCCOc1ccccc1-c1cc2ccc(C(=O)NC(c3ccc(F)cc3)c3ccc(F)cc3)cc2o1 | 37.9 | 340 | 50
6 | O=C(O)CCCOc1ccccc1-c1cc2cc(C(=O)NC(c3ccccc3)c3ccccc3)ccc2o1 | 155 | > 100000 | 310
7 | O=C(O)CCCOc1ccccc1-c1cc2cc(C(=O)NC(c3ccc(F)cc3)c3ccc(F)cc3)ccc2o1 | 279 | – | –
